Measured values from ChEMBL document CHEMBL1141332, “Cytotoxic metabolites from an Indonesian sponge Lendenfeldia sp” (J Nat Prod, 2007).

Assays:
Format in all cases: functional
HL-60 = assay: Cytotoxicity against human HL60 cells; settings: Homo sapiens, HL-60
K562 = assay: Cytotoxicity against human K562 cells
MOLT-4 = assay: Cytotoxicity against human MOLT4 cells
RPMI-8226 = assay: Cytotoxicity against human RPMI8226 cells
A549 = assay: Cytotoxicity against human A549 cells
HOP-62 = assay: Cytotoxicity against human HOP62 cells
HOP-92 = assay: Cytotoxicity against human HOP92 cells
NCI-H322M = assay: Cytotoxicity against human NCI-H322M cells
NCI-H460 = assay: Cytotoxicity against human NCI-H460 cells
NCI-H522 = assay: Cytotoxicity against human NCI-H522 cells
LOX IMVI = assay: Cytotoxicity against human LOX IMVI cells
COLO 205 = assay: Cytotoxicity against human COLO205 cells
HCC 2998 = assay: Cytotoxicity against human HCC2998 cells
HCT-116 = assay: Cytotoxicity against human HCT116 cells
HT-29 = assay: Cytotoxicity against human HT29 cells
KM12 = assay: Cytotoxicity against human KM12 cells
SW-620 = assay: Cytotoxicity against human SW620 cells
SF-268 = assay: Cytotoxicity against human SF268 cells
SF-295 = assay: Cytotoxicity against human SF295 cells
SF-539 = assay: Cytotoxicity against human SF539 cells
SNB-19 = assay: Cytotoxicity against human SNB19 cells; settings: read-out: Log LC50 (the source's name) (converted)
SNB-75 = assay: Cytotoxicity against human SNB75 cells
U-251 = assay: Cytotoxicity against human U251cells
M14 = assay: Cytotoxicity against human M14 cells
SK-MEL-2 = assay: Cytotoxicity against human SK-MEL-2 cells
SK-MEL-28 = assay: Cytotoxicity against human SK-MEL-28 cells
SK-MEL-5 = assay: Cytotoxicity against human SK-MEL-5 cells
UACC-257 = assay: Cytotoxicity against human UACC257 cells
UACC-62 = assay: Cytotoxicity against human UACC62 cells
IGROV-1 = assay: Cytotoxicity against human IGROV1 cells
OVCAR-4 = assay: Cytotoxicity against human OVCAR4 cells
OVCAR-5 = assay: Cytotoxicity against human OVCAR5 cells
OVCAR-8 = assay: Cytotoxicity against human OVCAR8 cells
SK-OV-3 = assay: Cytotoxicity against human SK-OV-3 cells
786-0 = assay: Cytotoxicity against human 786-0 cells
A498 = assay: Cytotoxicity against human A498 cells
RXF 393 = assay: Cytotoxicity against human RXF393 cells
TK-10 = assay: Cytotoxicity against human TK10 cells
PC-3 = assay: Cytotoxicity against human PC3 cells
DU-145 = assay: Cytotoxicity against human DU145 cells
MCF7 = assay: Cytotoxicity against human MCF7 cells
NCI/ADR-RES = assay: Cytotoxicity against human NCI/ADR-RES cells
MDA-MB-231 = assay: Cytotoxicity against human MDA-MB-231 cells
MDA-MB-435 = assay: Cytotoxicity against human MDA-MB-435 cells
BT-549 = assay: Cytotoxicity against human BT549 cells
[1] = read-out: Log LC50 (the source's name) (converted)

CC(=O)O[C@@H]1C[C@H]2[C@]3(C)CC[C@H]4C(C)(C)CCC[C@]4(C)[C@H]3C[C@H](O)[C@]2(C)[C@@H](C=O)[C@@H]1C(C)=O [SCALARHERBACIN A]
GI50 (HL-60): 1320 nM
CC50 (HL-60; [1]): 8510 nM
TGI (HL-60; read-out: Log TGI (converted)): 3390 nM
GI50 (K562): 1740 nM
CC50 (K562; [1]): 7760 nM
TGI (K562; read-out: Log TGI (converted)): 3720 nM
GI50 (MOLT-4): 324 nM
CC50 (MOLT-4; [1]): 4170 nM
TGI (MOLT-4; read-out: Log TGI (converted)): 1120 nM
GI50 (RPMI-8226): 407 nM
CC50 (RPMI-8226; [1]): 13200 nM
TGI (RPMI-8226; read-out: Log TGI (converted)): 2090 nM
GI50 (A549): 1230 nM
CC50 (A549; [1]): 6610 nM
TGI (A549; read-out: Log TGI (converted)): 2820 nM
GI50 (HOP-62): 1070 nM
CC50 (HOP-62; [1]): 4790 nM
TGI (HOP-62; read-out: Log TGI (converted)): 2240 nM
GI50 (HOP-92): 1320 nM
CC50 (HOP-92; [1]): 5500 nM
TGI (HOP-92; read-out: Log TGI (converted)): 2690 nM
GI50 (NCI-H322M): 2140 nM
CC50 (NCI-H322M; [1]): 8710 nM
TGI (NCI-H322M; read-out: Log TGI (converted)): 4270 nM
GI50 (NCI-H460): 1450 nM
CC50 (NCI-H460; [1]): 6760 nM
TGI (NCI-H460; read-out: Log TGI (converted)): 3160 nM
GI50 (NCI-H522): 1860 nM
CC50 (NCI-H522; [1]): 7590 nM
TGI (NCI-H522; read-out: Log TGI (converted)): 3720 nM
GI50 (LOX IMVI): 1000 nM
CC50 (LOX IMVI; [1]): 4680 nM
TGI (LOX IMVI; read-out: Log TGI (converted)): 2140 nM
GI50 (COLO 205): 537 nM
CC50 (COLO 205; [1]): 5250 nM
TGI (COLO 205; read-out: Log TGI (converted)): 1860 nM
GI50 (HCC 2998): 1510 nM
CC50 (HCC 2998; [1]): 5620 nM
TGI (HCC 2998; read-out: Log TGI (converted)): 2950 nM
GI50 (HCT-116): 407 nM
CC50 (HCT-116; [1]): 3720 nM
TGI (HCT-116; read-out: Log TGI (converted)): 1380 nM
GI50 (HT-29): 309 nM
CC50 (HT-29; [1]): 3800 nM
TGI (HT-29; read-out: Log TGI (converted)): 1100 nM
GI50 (KM12): 1480 nM
CC50 (KM12; [1]): 8510 nM
TGI (KM12; read-out: Log TGI (converted)): 3550 nM
GI50 (SW-620): 214 nM
CC50 (SW-620; [1]): 1070 nM
TGI (SW-620; read-out: Log TGI (converted)): 468 nM
GI50 (SF-268): 1450 nM
CC50 (SF-268; [1]): 7410 nM
TGI (SF-268; read-out: Log TGI (converted)): 3240 nM
GI50 (SF-295): 1450 nM
CC50 (SF-295; [1]): 6170 nM
TGI (SF-295; read-out: Log TGI (converted)): 3020 nM
GI50 (SF-539): 417 nM
TGI (SF-539; read-out: Log TGI (converted)): 1580 nM
CC50 (SNB-19): 1660 nM
GI50 (SNB-75): 1580 nM
CC50 (SNB-75; [1]): 5500 nM
TGI (SNB-75; read-out: Log TGI (converted)): 2950 nM
GI50 (U-251): 589 nM
CC50 (U-251; [1]): 4270 nM
TGI (U-251; read-out: Log TGI (converted)): 1780 nM
GI50 (M14): 1450 nM
CC50 (M14; [1]): 5370 nM
TGI (M14; read-out: Log TGI (converted)): 2750 nM
GI50 (SK-MEL-2): 2240 nM
CC50 (SK-MEL-2; [1]): 16600 nM
TGI (SK-MEL-2; read-out: Log TGI (converted)): 4790 nM
GI50 (SK-MEL-28): 389 nM
TGI (SK-MEL-28; read-out: Log TGI (converted)): 1290 nM
GI50 (SK-MEL-5): 1290 nM
CC50 (SK-MEL-5; [1]): 5250 nM
TGI (SK-MEL-5; read-out: Log TGI (converted)): 2630 nM
GI50 (UACC-257): 2190 nM
CC50 (UACC-257; [1]): 27500 nM
TGI (UACC-257; read-out: Log TGI (converted)): 5250 nM
GI50 (UACC-62): 1580 nM
CC50 (UACC-62; [1]): 5500 nM
TGI (UACC-62; read-out: Log TGI (converted)): 2950 nM
GI50 (IGROV-1): 1950 nM
CC50 (IGROV-1; [1]): 8320 nM
TGI (IGROV-1; read-out: Log TGI (converted)): 4070 nM
GI50 (OVCAR-4): 912 nM
CC50 (OVCAR-4; [1]): 6610 nM
TGI (OVCAR-4; read-out: Log TGI (converted)): 2510 nM
GI50 (OVCAR-5): 1320 nM
CC50 (OVCAR-5; [1]): 5130 nM
TGI (OVCAR-5; read-out: Log TGI (converted)): 2630 nM
GI50 (OVCAR-8): 676 nM
CC50 (OVCAR-8; [1]): 57500 nM
TGI (OVCAR-8; read-out: Log TGI (converted)): 3890 nM
GI50 (SK-OV-3): 2000 nM
CC50 (SK-OV-3; [1]): 8130 nM
TGI (SK-OV-3; read-out: Log TGI (converted)): 3980 nM
GI50 (786-0): 479 nM
CC50 (786-0; [1]): 4070 nM
TGI (786-0; read-out: Log TGI (converted)): 1620 nM
GI50 (A498): 1820 nM
LC50 (A498): 6760 nM
TGI (A498; read-out: Log TGI (converted)): 3470 nM
GI50 (RXF 393): 1150 nM
LC50 (RXF 393): 5370 nM
TGI (RXF 393; read-out: Log TGI (converted)): 2510 nM
GI50 (TK-10): 1380 nM
LC50 (TK-10): 6610 nM
TGI (TK-10; read-out: Log TGI (converted)): 3020 nM
GI50 (PC-3): 741 nM
LC50 (PC-3): 5250 nM
TGI (PC-3; read-out: Log TGI (converted)): 2140 nM
GI50 (DU-145): 1230 nM
LC50 (DU-145): 5130 nM
TGI (DU-145; read-out: Log TGI (converted)): 2510 nM
GI50 (MCF7): 1820 nM
LC50 (MCF7): 70800 nM
TGI (MCF7; read-out: Log TGI (converted)): 6170 nM
GI50 (NCI/ADR-RES): 1660 nM
LC50 (NCI/ADR-RES): 7080 nM
TGI (NCI/ADR-RES; read-out: Log TGI (converted)): 3470 nM
GI50 (MDA-MB-231): 1480 nM
TGI (MDA-MB-231; read-out: Log TGI (converted)): 2880 nM
GI50 (MDA-MB-435): 1450 nM
LC50 (MDA-MB-435): 6760 nM
TGI (MDA-MB-435; read-out: Log TGI (converted)): 3090 nM
GI50 (BT-549): 562 nM
LC50 (BT-549): 4370 nM
TGI (BT-549; read-out: Log TGI (converted)): 1780 nM
